Target: tyramine oxidase (microbial)
Test: Compound was evaluated for inhibition of Microbial tyramine oxidase; irreversible

IC50: 20 µM
Structure (SMILES): NNC(=O)C1(c2ccccc2)CC1F (stereo unspecified) [2-Fluoro-1-phenyl-cyclopropanecarboxylic acid hydrazide]

From BindingDB's records for doi:10.1021/jm030398k (National Institute of Diabetes and Digestive and Kidney …, 2004)
